Measured values taken from paper PMC4911353, “Pharmacologic Inhibition of Host Phosphodiesterase-4 Improves Isoniazid-Mediated Clearance of Mycobacterium tuberculosis” (Frontiers in Immunology, 2016).

Test system: Mtb-infected mouse lungs
Experiment: Genome-wide lung transcriptome (microarray, IPA network/GO analysis) of Mtb-infected mice
Assay type: in vivo
[1] = Canonical IFN signaling pathway

CCOc1cc([C@@H](CS(C)(=O)=O)N2Cc3cccc(NC(=O)C4CC4)c3C2=O)ccc1OC [CC-11050, N-[2-[(1S)-1-(3-ethoxy-4-methoxyphenyl)-2-(methylsulfonyl)ethyl]-2,3-dihydro-3-oxo-1H-isoindol-4-yl]-(9Cl) cyclopropanecarboxamide]
Number of SDEGs affected by more than 1.5-folds (14 days of treatment (29 upregulated and 18 downregulated)): 47
Number of SDEGs relative to infected untreated animals (14 days of treatment, FDR 5%): 1,277
BAK expression [1]: 0
BAX expression [1]: 0
DRIP150 expression [1]: 0
IFI35 expression [1]: 0
IFIT3 expression [1]: 0
IFNAR2 expression [1]: 0
IFNG expression [1]: 0
IFNGRb expression [1]: -1.115
IRF1 expression [1]: 0
IRF9 expression [1]: 0
JAK2 expression [1]: 0
OAS1 expression [1]: 0
PIAS1 expression [1]: 0
PSMB8 expression [1]: 0
SOCS1 expression [1]: 0
STAT1 expression [1]: 0
STAT2 expression [1]: 0
TAP1 expression [1]: 0
TC-PTP expression [1]: 0
TYK2 expression [1]: 0
ACTB expression (IL17 interaction network): 0
CCL2 expression (IL17 interaction network): 0
CCL5 expression (IL17 interaction network): 0
CCL13 expression (IL17 interaction network): 0
CSF2 expression (IL17 interaction network): 0
EDIL3 expression (IL17 interaction network): 0
ENTPD1 expression (IL17 interaction network): 1.149
HMGB1 expression (IL17 interaction network): -1.135
HSPB8 expression (IL17 interaction network): 1.322
IFNG expression (IL17 interaction network): 0
IL1B expression (IL17 interaction network): 0
IL6 expression (IL17 interaction network): 0
IL10 expression (IL17 interaction network): 0
IL16 expression (IL17 interaction network): 0
IL17A expression (IL17 interaction network): 0
IL17D expression (IL17 interaction network): 0
IL17F expression (IL17 interaction network): -1.184
LTA expression (IL17 interaction network): 0
MMP9 expression (IL17 interaction network): 0
NOS2 expression (IL17 interaction network): 0
PTGS2 expression (IL17 interaction network): 0
RGS13 expression (IL17 interaction network): 0
SELE expression (IL17 interaction network): 0
STAT3 expression (IL17 interaction network): 0
TIMP1 expression (IL17 interaction network): 0
TLR4 expression (IL17 interaction network): 0
TNF expression (IL17 interaction network): 0
TRAF3IP2 expression (IL17 interaction network): 0
TRAF6 expression (IL17 interaction network): 0
VWF expression (IL17 interaction network): 0
ABL1 expression (Lung inflammation network): 0
ACO2 expression (Lung inflammation network): 0
ACTB expression (Lung inflammation network): 0
ADORA2A expression (Lung inflammation network): 0
AGER expression (Lung inflammation network): 0
AGTR1 expression (Lung inflammation network): 0
AHR expression (Lung inflammation network): 0
ALDH2 expression (Lung inflammation network): 0
ANGPT1 expression (Lung inflammation network): 0
ANXA3 expression (Lung inflammation network): 0
ATF3 expression (Lung inflammation network): 0
BAX expression (Lung inflammation network): 0
BID expression (Lung inflammation network): 0
BSG expression (Lung inflammation network): 0
CASP1 expression (Lung inflammation network): 0
CAV1 expression (Lung inflammation network): 0
CBL expression (Lung inflammation network): 0
CCL2 expression (Lung inflammation network): 0
CCL5 expression (Lung inflammation network): 0
CCR4 expression (Lung inflammation network): 0
CCR5 expression (Lung inflammation network): 0
CD4 expression (Lung inflammation network): 0
CD14 expression (Lung inflammation network): 0
CD40LG expression (Lung inflammation network): 0
CD44 expression (Lung inflammation network): 0
CD86 expression (Lung inflammation network): 0
CD200 expression (Lung inflammation network): 0
CIITA expression (Lung inflammation network): 0
CSF2RB expression (Lung inflammation network): 0
CSF2 expression (Lung inflammation network): 0
CSK expression (Lung inflammation network): 0
CTLA4 expression (Lung inflammation network): 0
CTSS expression (Lung inflammation network): 0
CXCR3 expression (Lung inflammation network): 0
CYBB expression (Lung inflammation network): 0
CYLD expression (Lung inflammation network): 0
Ccl6 expression (Lung inflammation network): 0
Cd59a expression (Lung inflammation network): 0
Cxcl15 expression (Lung inflammation network): 0
E2F3 expression (Lung inflammation network): -1.343
EDNRA expression (Lung inflammation network): 0
EDNRB expression (Lung inflammation network): 1.235
EIF2C2 expression (Lung inflammation network): 0
ENTPD1 expression (Lung inflammation network): 1.149
F2RL1 expression (Lung inflammation network): 0
F10 expression (Lung inflammation network): 0
FASLG expression (Lung inflammation network): 0
FBN1 expression (Lung inflammation network): 0
FCGR2B expression (Lung inflammation network): 0
FCGRT expression (Lung inflammation network): 1.165
FOXO3 expression (Lung inflammation network): 1.609
HMGCR expression (Lung inflammation network): 0
HRH1 expression (Lung inflammation network): 0
HTT expression (Lung inflammation network): 0
IFNG expression (Lung inflammation network): 0
IFNGR2 expression (Lung inflammation network): -1.115
IKBKB expression (Lung inflammation network): 0
IKBKE expression (Lung inflammation network): 0
IL1B expression (Lung inflammation network): 0
IL1R1 expression (Lung inflammation network): 0
IL2RG expression (Lung inflammation network): 0
IL4R expression (Lung inflammation network): 0
IL6 expression (Lung inflammation network): 0
IL10 expression (Lung inflammation network): 0
IL12B expression (Lung inflammation network): 0
IL15RA expression (Lung inflammation network): 0
IL16 expression (Lung inflammation network): 0
IL17RB expression (Lung inflammation network): 0
IL18 expression (Lung inflammation network): 0
ITGB6 expression (Lung inflammation network): 0
ITGBL1 expression (Lung inflammation network): 0
ITK expression (Lung inflammation network): 0
KIT expression (Lung inflammation network): 0
LAT expression (Lung inflammation network): 0
LCP2 expression (Lung inflammation network): 0
LGALS1 expression (Lung inflammation network): 0
LIF expression (Lung inflammation network): -1.187
LTA expression (Lung inflammation network): 0
MAP3K14 expression (Lung inflammation network): 0
MARK2 expression (Lung inflammation network): 0
MGAT5 expression (Lung inflammation network): 0
MKL2 expression (Lung inflammation network): 0
MMP9 expression (Lung inflammation network): 0
MMP14 expression (Lung inflammation network): 0
NCF1 expression (Lung inflammation network): 0
NEO1 expression (Lung inflammation network): 0
NFATC2 expression (Lung inflammation network): 0
NFKB1 expression (Lung inflammation network): 0
NLRP3 expression (Lung inflammation network): 0
NOD1 expression (Lung inflammation network): 0
NOD2 expression (Lung inflammation network): 0
NOS2 expression (Lung inflammation network): 0
NQO1 expression (Lung inflammation network): 0
NQO2 expression (Lung inflammation network): 0
NT5E expression (Lung inflammation network): 0
PDE5A expression (Lung inflammation network): 0
PDGFRA expression (Lung inflammation network): 0
PDGFRB expression (Lung inflammation network): 0
PLA2G4A expression (Lung inflammation network): 0
PLAU expression (Lung inflammation network): 0
PTAFR expression (Lung inflammation network): 0
PTEN expression (Lung inflammation network): 1.12
PTGS2 expression (Lung inflammation network): 0
PTPN6 expression (Lung inflammation network): 0
PTPRC expression (Lung inflammation network): 0
RELB expression (Lung inflammation network): 0
S100A4 expression (Lung inflammation network): 0
SELE expression (Lung inflammation network): 0
SFTPA1 expression (Lung inflammation network): 1.126
SFTPD expression (Lung inflammation network): 0
SLC6A2 expression (Lung inflammation network): 0
SOCS1 expression (Lung inflammation network): 0
SPI1 expression (Lung inflammation network): 0
SPP1 expression (Lung inflammation network): 0
STAT1 expression (Lung inflammation network): 0
TFPI expression (Lung inflammation network): 1.241
